{
  "source": "patent US8735391B2",
  "about": "“Synthesis of functionalized octahydro-isoquinolin-1-one-8-carboxamides, octahydro-isoquinolin-1-one-8-carboxylic esters and analogs, and therapeutic methods” (University of Kansas, priority 2008, dated 2014)",
  "data": [
    {"molecular_target": "DOR (Homo sapiens, UniProt P41143)", "sequence (P41143 whole entry)": "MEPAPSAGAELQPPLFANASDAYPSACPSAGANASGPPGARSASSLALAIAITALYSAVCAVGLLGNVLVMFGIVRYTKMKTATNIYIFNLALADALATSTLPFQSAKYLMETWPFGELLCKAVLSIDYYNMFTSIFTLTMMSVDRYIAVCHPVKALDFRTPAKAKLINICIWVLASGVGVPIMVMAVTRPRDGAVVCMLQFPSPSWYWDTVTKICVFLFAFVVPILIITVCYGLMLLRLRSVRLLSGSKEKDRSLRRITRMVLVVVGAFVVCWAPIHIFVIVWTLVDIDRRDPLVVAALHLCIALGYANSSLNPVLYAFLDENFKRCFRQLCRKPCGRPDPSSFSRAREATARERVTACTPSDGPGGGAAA", "experiment": "Opioid secondary binding, DOR (Table 4)", "conditions": "Opioid secondary binding activity for Formula 10 analogs", "units": {"Ki": "nM"}, "values": [
      {"smiles": "O=C(Nc1cc(F)c(F)c(F)c1)[C@@H]1CC=C[C@@H]2CCN(C3CCCCC3)C(=O)[C@@H]21", "note": "(racemic) [compound 12088]", "Ki": 2790},
      {"smiles": "O=C(NCc1ccc(Cl)c(Cl)c1)[C@@H]1CC=C[C@@H]2CCN(c3ccccc3)C(=O)[C@@H]21", "note": "(racemic) [compound 12142]", "Ki": 103},
      {"smiles": "O=C(Nc1ccc(F)c(F)c1)[C@@H]1CC=C[C@@H]2CCN(CC3CC3)C(=O)[C@@H]21", "note": "(racemic) [compound 12155]", "Ki": 2250},
      {"smiles": "CN(C)C(=O)[C@@H]1CC=C[C@@H]2CCN(c3ccccc3)C(=O)[C@@H]21", "note": "(racemic) [compound 12096]", "Ki": "> 10000"},
      {"smiles": "Cc1cc(C)c(NC(=O)[C@@H]2CC=C[C@@H]3CCN(CC4CC4)C(=O)[C@@H]32)c(C)c1", "note": "(racemic) [compound 11945]", "Ki": "> 10000"},
      {"smiles": "O=C(Nc1cccc(Cl)c1)[C@@H]1CC=C[C@@H]2CCCN(C3CCCCC3)C(=O)[C@@H]21", "note": "(racemic) [compound 14425]", "Ki": 6040},
      {"smiles": "O=C(Nc1nccs1)[C@@H]1CC=C[C@@H]2CCCN(C3CCCCC3)C(=O)[C@@H]21", "note": "(racemic) [compound 14428]", "Ki": 2990},
      {"smiles": "O=C(Nc1ccc(I)cc1)[C@@H]1CC=C[C@@H]2CCN(c3ccccc3)C(=O)[C@@H]21", "note": "(racemic) [compound 11948]", "Ki": 83},
      {"smiles": "Cc1ccc(CNC(=O)[C@@H]2CC=C[C@@H]3CCN(c4ccccc4)C(=O)[C@@H]32)cc1", "note": "(racemic) [compound 11950]", "Ki": 297},
      {"smiles": "CCOC(=O)C1CCCCN1C(=O)[C@@H]1CC=C[C@@H]2CCN(CC3CCCCC3)C(=O)[C@@H]21", "note": "(mixture of isomers) [compound 12115]", "Ki": 9160},
      {"smiles": "O=C(NC1CCCCC1)[C@@H]1CC=C[C@@H]2CCCN(C3CCCCC3)C(=O)[C@@H]21", "note": "(racemic) [compound 14424]", "Ki": 1690},
      {"smiles": "O=C(Nc1ccc(Br)c(C(F)(F)F)c1)[C@@H]1CC=C[C@@H]2CCN(CC3CCCCC3)C(=O)[C@@H]21", "note": "(racemic) [compound 12173]", "Ki": 508},
      {"smiles": "CC(c1ccccc1)N1CCC2C=CCC(C(=O)Nc3cccc(Cl)c3)C2C1=O", "note": "(mixture of isomers) [compound 12165]", "Ki": 1210},
      {"smiles": "O=C(Nc1cccnc1)[C@@H]1CC=C[C@@H]2CCN(c3ccccc3)C(=O)[C@@H]21", "note": "(racemic) [compound 11927]", "Ki": 2100},
      {"smiles": "CN(C(=O)[C@@H]1CC=C[C@@H]2CCN(CC3CCCCC3)C(=O)[C@@H]21)c1ccccc1", "note": "(racemic) [compound 12113]", "Ki": 2830}
    ]},
    {"molecular_target": "KOR (Homo sapiens, UniProt P41145)", "sequence (P41145 whole entry)": "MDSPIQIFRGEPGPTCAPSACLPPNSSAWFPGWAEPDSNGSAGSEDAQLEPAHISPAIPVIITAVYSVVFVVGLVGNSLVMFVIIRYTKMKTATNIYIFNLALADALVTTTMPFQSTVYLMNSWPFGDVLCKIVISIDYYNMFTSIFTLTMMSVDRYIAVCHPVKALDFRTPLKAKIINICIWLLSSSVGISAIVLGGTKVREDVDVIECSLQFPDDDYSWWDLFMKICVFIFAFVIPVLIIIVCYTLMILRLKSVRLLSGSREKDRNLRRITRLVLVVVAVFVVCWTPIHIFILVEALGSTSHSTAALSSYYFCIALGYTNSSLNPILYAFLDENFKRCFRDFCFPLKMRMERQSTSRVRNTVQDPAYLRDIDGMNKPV", "experiment": "Opioid secondary binding, KOR (Tables 4, 5, 8, 9)", "conditions": "not given", "units": {"Ki": "nM"}, "values": [
      {"smiles": "O=C(NC1CCCCC1)[C@@H]1CC=C[C@@H]2CCN(Cc3ccccc3)C(=O)[C@@H]21", "note": "[compound 11791]", "Ki": 1300}
    ]},
    {"molecular_target": "KOR (Homo sapiens, UniProt P41145)", "experiment": "Opioid secondary binding, KOR (Tables 4, 5, 8, 9)", "conditions": "Opioid secondary binding activity for Formula 10 analogs; read-out: KOR, Ki", "units": {"Ki": "nM"}, "values": [
      {"smiles": "COC(=O)C(C)NC(=O)C1CC=CC2CCN(Cc3ccccc3)C(=O)C21", "note": "(mixture of isomers) [compound 11818]", "Ki": 6170},
      {"smiles": "O=C(NC1CCCCC1)[C@@H]1CC=C[C@@H]2CCN(CC3CCCCC3)C(=O)[C@@H]21", "note": "(racemic) [compound 11886]", "Ki": 177},
      {"smiles": "O=C(OCc1ccccc1)C(Cc1ccccc1)NC(=O)C1CC=CC2CCN(C3CCCCC3)C(=O)C21", "note": "(mixture of isomers) [compound 11825]", "Ki": 1110},
      {"smiles": "O=C(Nc1cccc(Cl)c1)[C@@H]1CC=C[C@@H]2CCN(Cc3ccc(Cl)cc3)C(=O)[C@@H]21", "note": "(racemic) [compound 10836]", "Ki": 225},
      {"smiles": "O=C(Nc1ccc(Cl)cc1C(F)(F)F)[C@@H]1CC=C[C@@H]2CCN(C3CCCCC3)C(=O)[C@@H]21", "note": "(racemic) [compound 11858]", "Ki": 866},
      {"smiles": "O=C(Nc1ccc(C(F)(F)F)cc1Cl)[C@@H]1CC=C[C@@H]2CCN(c3ccccc3)C(=O)[C@@H]21", "note": "(racemic) [compound 11865]", "Ki": 180},
      {"smiles": "O=C(Nc1ccc(Cl)c(C(F)(F)F)c1)C1CCCC2CCN(C3CCCCC3)C(=O)C21", "note": "(racemic) [compound 11479]", "Ki": 792},
      {"smiles": "CC(NC(=O)C1CC=CC2CCN(CCc3ccccc3)C(=O)C21)c1ccccc1", "note": "(mixture of isomers) [compound 11848]", "Ki": 3490},
      {"smiles": "O=C1NCC[C@H]2C=CC[C@@H](C(=O)Nc3ccc(Cl)c(C(F)(F)F)c3)[C@@H]12", "note": "(racemic) [compound 11896]", "Ki": 729},
      {"smiles": "O=C(Nc1ccc(F)c(F)c1)[C@@H]1CC=C[C@@H]2CCN(CC3CCCCC3)C(=O)[C@@H]21", "note": "(racemic) [compound 11889]", "Ki": 131},
      {"smiles": "CC(C)N1CCC2C=CCC(C(=O)Nc3cccc(Cl)c3)C2C1=O", "note": "(racemic) [compound 10844]", "Ki": 2130},
      {"smiles": "O=C(Nc1ccc(Cl)c(C(F)(F)F)c1)C1CC=CC2CCN(Cc3ccc(Cl)cc3)C(=O)C21", "note": "(racemic) [compound 10841]", "Ki": 465},
      {"smiles": "O=C(Nc1ccc(F)c(F)c1)[C@@H]1CC=C[C@@H]2CCN(c3ccccc3)C(=O)[C@@H]21", "note": "(racemic) [compound 10823]", "Ki": 375},
      {"smiles": "O=C(OCc1ccccc1)C1CCCN1C(=O)C1CC=CC2CCN(Cc3ccc(Cl)cc3)C(=O)C21", "note": "(mixture of isomers) [compound 11808]", "Ki": 2290},
      {"smiles": "O=C(Nc1c(F)c(F)c(F)c(F)c1F)[C@@H]1CC=C[C@@H]2CCN(Cc3ccccc3)C(=O)[C@@H]21", "note": "(racemic) [compound 14309]", "Ki": 2970},
      {"smiles": "COc1ccc(NC(=O)[C@@H]2CC=C[C@@H]3CCN(Cc4ccc(Cl)cc4)C(=O)[C@@H]32)cc1", "note": "(racemic) [compound 10835]", "Ki": 5070},
      {"smiles": "O=C(NCc1ccccc1)[C@@H]1CC=C[C@@H]2CCN(C3CCCCC3)C(=O)[C@@H]21", "note": "(racemic) [compound 11918]", "Ki": 358},
      {"smiles": "O=C(Nc1ccc(Cl)cc1Cl)[C@@H]1CC=C[C@@H]2CCN(CCc3ccccc3)C(=O)[C@@H]21", "note": "(racemic) [compound 10834]", "Ki": 6480},
      {"smiles": "O=C(NCc1ccc(Cl)c(C(F)(F)F)c1)[C@@H]1CC=C[C@@H]2CCN(C3CCCCC3)C(=O)[C@@H]21", "note": "(racemic) [compound 11856]", "Ki": 531},
      {"smiles": "Cc1ccc(NC(=O)[C@@H]2CC=C[C@@H]3CCN(C4CCCCC4)C(=O)[C@@H]32)cc1Cl", "note": "(racemic) [compound 11919]", "Ki": 102},
      {"smiles": "CC(C)N1CCC2C=CCC(C(=O)Nc3ccc(Cl)cc3Cl)C2C1=O", "note": "(racemic) [compound 10850]", "Ki": 2410},
      {"smiles": "COC(=O)C(CCSC)NC(=O)C1CC=CC2CCN(Cc3ccccc3)C(=O)C21", "note": "(mixture of isomers) [compound 11816]", "Ki": 2630},
      {"smiles": "O=C(Nc1ccc(Cl)c(C(F)(F)F)c1)[C@@H]1CC=C[C@@H]2CCN(CC3CCCCC3)C(=O)[C@@H]21", "note": "(racemic) [compound 11890]", "Ki": 840},
      {"smiles": "COC(=O)C(CCSC)NC(=O)C1CC=CC2CCN(C3CCCCC3)C(=O)C21", "note": "(mixture of isomers) [compound 11822]", "Ki": 4500},
      {"smiles": "O=C(Nc1ccccc1)[C@@H]1CC=C[C@@H]2CCN(CC3CCCCC3)C(=O)[C@@H]21", "note": "(racemic) [compound 11887]", "Ki": 187},
      {"smiles": "O=C(Nc1ccccc1)[C@@H]1CC=C[C@@H]2CCN(Cc3ccccc3)C(=O)[C@@H]21", "note": "[compound 11793]", "Ki": 1610},
      {"smiles": "COc1cccc(F)c1CN1CC[C@H]2C=CC[C@@H](C(=O)Nc3ccc(C)c(F)c3F)[C@H]2C1=O", "note": "(racemic) [compound 13485]", "Ki": 5120},
      {"smiles": "O=C(Nc1cccc(Cl)c1)[C@@H]1CC=C[C@@H]2CCN(c3ccccc3)C(=O)[C@@H]21", "note": "(racemic) [compound 10821]", "Ki": 420},
      {"smiles": "CC(C)N1CCC2C=CCC(C(=O)Nc3cccc(C(F)(F)F)c3)C2C1=O", "note": "(racemic) [compound 10846]", "Ki": 621},
      {"smiles": "O=C(Nc1cccc(C(F)(F)F)c1)C1CC=CC2CCN(Cc3ccc(Cl)cc3)C(=O)C21", "note": "(racemic) [compound 10838]", "Ki": 1510},
      {"smiles": "O=C(Nc1ccc(C(F)(F)F)cc1Cl)[C@@H]1CC=C[C@@H]2CCN(CCc3ccccc3)C(=O)[C@@H]21", "note": "(racemic) [compound 11877]", "Ki": 3300},
      {"smiles": "O=C(Nc1ccc(F)c(F)c1)C1CC=CC2CCN(Cc3ccc(Cl)cc3)C(=O)C21", "note": "(racemic) [compound 10839]", "Ki": 652},
      {"smiles": "O=C(Nc1ccc(Cl)cc1Cl)[C@@H]1CC=C[C@@H]2CCN(c3ccccc3)C(=O)[C@@H]21", "note": "(racemic) [compound 10826]", "Ki": 287},
      {"smiles": "CC(NC(=O)C1CC=CC2CCN(C3CCCCC3)C(=O)C21)c1ccccc1", "note": "(mixture of isomers) [compound 11836]", "Ki": 599},
      {"smiles": "O=C(Nc1ccc(Br)c(C(F)(F)F)c1)[C@@H]1CC=C[C@@H]2CCN(C3CCCCC3)C(=O)[C@@H]21", "note": "(racemic) [compound 11857]", "Ki": 814},
      {"smiles": "O=C(Nc1ccc(C(F)(F)F)cc1)C1CC=CC2CCN(Cc3ccc(Cl)cc3)C(=O)C21", "note": "(racemic) [compound 10837]", "Ki": 2530},
      {"smiles": "O=C(Nc1ccc(C(F)(F)F)cc1)[C@@H]1CC=C[C@@H]2CCN(c3ccccc3)C(=O)[C@@H]21", "note": "(racemic) [compound 10822]", "Ki": 786},
      {"smiles": "O=C(Nc1ccc(F)cc1)[C@@H]1CC=C[C@@H]2CCN(Cc3ccccc3)C(=O)[C@@H]21", "note": "(racemic) [compound 11909]", "Ki": 276},
      {"smiles": "O=C(Nc1ccc([N+](=O)[O-])c(C(F)(F)F)c1)[C@@H]1CC=C[C@@H]2CCN(C3CCCCC3)C(=O)[C@@H]21", "note": "(racemic) [compound 11920]", "Ki": 5110},
      {"smiles": "CCOC(=O)CCC(NC(=O)C1CC=CC2CCN(C3CCCCC3)C(=O)C21)C(=O)OCC", "note": "(mixture of isomers) [compound 11821]", "Ki": 4710},
      {"smiles": "O=C(OCc1ccccc1)C(Cc1ccccc1)NC(=O)C1CC=CC2CCN(CCc3ccccc3)C(=O)C21", "note": "(mixture of isomers) [compound 11831]", "Ki": 1520},
      {"smiles": "CC(NC(=O)C1CC=CC2CCN(Cc3ccccc3)C(=O)C21)c1ccccc1", "note": "(mixture of isomers) [compound 11854]", "Ki": 712},
      {"smiles": "O=C(Nc1c(F)cccc1F)[C@@H]1CC=C[C@@H]2CCN(c3ccccc3)C(=O)[C@@H]21", "note": "(racemic) [compound 10824]", "Ki": 5000},
      {"smiles": "CC(C)N1CCC2C=CCC(C(=O)Nc3ccc(Cl)c(C(F)(F)F)c3)C2C1=O", "note": "(racemic) [compound 10849]", "Ki": 261},
      {"smiles": "CC(C)N1CCC2C=CCC(C(=O)Nc3ccc(F)c(F)c3)C2C1=O", "note": "(racemic) [compound 10847]", "Ki": 4200},
      {"smiles": "O=C(O)C(Cc1ccccc1)NC(=O)C1CC=CC2CCN(Cc3ccccc3)C(=O)C21", "note": "(mixture of isomers) [compound 11902]", "Ki": 3380},
      {"smiles": "O=C(OCc1ccccc1)C(Cc1ccccc1)NC(=O)C1CC=CC2CCN(Cc3ccccc3)C(=O)C21", "note": "(mixture of isomers) [compound 11819]", "Ki": 1290},
      {"smiles": "Cc1cc(NC(=O)[C@@H]2CC=C[C@@H]3CCN(C4CCCCC4)C(=O)[C@@H]32)ccc1Cl", "note": "(racemic) [compound 11860]", "Ki": 716}
    ]}
  ]
}
